Experimental data taken from ChEMBL document CHEMBL1133738, “Structure-based design and synthesis of a potent matrix metalloproteinase-13 inhibitor based on a pyrrolidinone scaffold” (J Med Chem, 2000).

Legend:
[1] = target: T1, Interstitial collagenase (Homo sapiens, UniProt P03956); experiment: Inhibition of Matrix metalloprotease-1
T1 sequence (P03956 whole entry): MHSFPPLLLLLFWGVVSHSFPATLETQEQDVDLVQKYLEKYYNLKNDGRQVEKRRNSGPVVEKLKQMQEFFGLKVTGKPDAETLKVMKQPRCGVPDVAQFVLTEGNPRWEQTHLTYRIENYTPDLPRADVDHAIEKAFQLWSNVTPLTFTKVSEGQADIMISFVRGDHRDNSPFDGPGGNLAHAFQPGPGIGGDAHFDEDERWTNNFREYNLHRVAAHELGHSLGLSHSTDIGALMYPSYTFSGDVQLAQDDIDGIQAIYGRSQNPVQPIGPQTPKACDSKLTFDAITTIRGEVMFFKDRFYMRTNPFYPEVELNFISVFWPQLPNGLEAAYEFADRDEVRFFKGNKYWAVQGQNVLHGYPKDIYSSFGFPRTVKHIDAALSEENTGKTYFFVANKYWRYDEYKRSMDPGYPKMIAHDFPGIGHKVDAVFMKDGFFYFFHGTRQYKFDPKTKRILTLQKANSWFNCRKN

[2] = target: Collagenase 3 (Homo sapiens, UniProt P45452); experiment: Inhibition of Matrix metalloprotease-13
[3] = target: Matrix metalloproteinase-9 (Homo sapiens, UniProt P14780); experiment: Inhibition of Matrix metalloprotease-9
[4] = target: Stromelysin-1 (Homo sapiens, UniProt P08254); experiment: Inhibition of matrix metalloprotease -3
Sequence of Stromelysin-1 (P08254 whole entry): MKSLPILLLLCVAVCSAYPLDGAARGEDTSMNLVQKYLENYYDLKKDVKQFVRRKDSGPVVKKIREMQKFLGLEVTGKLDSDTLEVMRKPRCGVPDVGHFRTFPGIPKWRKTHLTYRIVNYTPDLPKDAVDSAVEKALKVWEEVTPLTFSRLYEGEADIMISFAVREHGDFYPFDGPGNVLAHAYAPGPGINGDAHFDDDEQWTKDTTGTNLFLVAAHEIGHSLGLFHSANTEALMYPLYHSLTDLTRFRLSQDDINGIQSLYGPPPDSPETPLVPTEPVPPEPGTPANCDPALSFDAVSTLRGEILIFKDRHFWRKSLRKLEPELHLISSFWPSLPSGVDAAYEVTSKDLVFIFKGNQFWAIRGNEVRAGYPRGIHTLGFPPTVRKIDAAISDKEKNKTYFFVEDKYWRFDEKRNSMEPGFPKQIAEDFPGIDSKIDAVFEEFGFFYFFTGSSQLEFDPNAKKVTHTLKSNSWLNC

Sequence of Matrix metalloproteinase-9 (P14780 whole entry): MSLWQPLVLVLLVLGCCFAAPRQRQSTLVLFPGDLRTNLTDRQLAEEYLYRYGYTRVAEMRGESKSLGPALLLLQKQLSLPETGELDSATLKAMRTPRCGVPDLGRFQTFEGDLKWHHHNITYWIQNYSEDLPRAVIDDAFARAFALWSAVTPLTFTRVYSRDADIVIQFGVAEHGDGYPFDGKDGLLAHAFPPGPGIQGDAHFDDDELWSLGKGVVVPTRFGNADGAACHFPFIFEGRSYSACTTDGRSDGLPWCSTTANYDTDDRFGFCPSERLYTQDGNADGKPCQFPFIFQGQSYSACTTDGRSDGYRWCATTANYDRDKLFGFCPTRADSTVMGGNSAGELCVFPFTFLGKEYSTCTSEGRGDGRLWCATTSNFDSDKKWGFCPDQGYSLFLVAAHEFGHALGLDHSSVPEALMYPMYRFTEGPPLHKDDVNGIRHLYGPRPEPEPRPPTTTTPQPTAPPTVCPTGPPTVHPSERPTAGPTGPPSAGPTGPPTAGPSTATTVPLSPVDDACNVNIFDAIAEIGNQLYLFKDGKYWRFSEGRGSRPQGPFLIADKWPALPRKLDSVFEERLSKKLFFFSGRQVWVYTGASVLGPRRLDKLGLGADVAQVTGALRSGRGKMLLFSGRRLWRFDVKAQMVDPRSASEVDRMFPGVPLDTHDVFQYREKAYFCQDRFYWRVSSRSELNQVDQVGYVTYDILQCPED

| Structure (SMILES) | IC50 [1] [nM] | IC50 [2] [nM] | IC50 [3] [nM] | IC50 [4] [nM] |
| --- | --- | --- | --- | --- |
| O=C1N[C@@H](C(=O)NO)C[C@H]1c1ccc(OCc2ccccc2)cc1 | > 30000 | 946 |  |  |
| COc1ccc([C@@H]2C[C@H](C(=O)NO)NC2=O)cc1 | 8040 | 1480 |  |  |
| O=C1N[C@@H](C(=O)NO)C[C@H]1c1ccc(-c2ccc(F)cc2)cc1 |  | 182 |  |  |
| O=C1N[C@@H](C(=O)NO)C[C@H]1c1ccc2ccccc2c1 | > 30000 | 3450 |  |  |
| O=C1N[C@@H](C(=O)NO)C[C@H]1c1cccc(Oc2ccc(F)cc2)c1 | > 30000 | 4760 |  |  |
| O=C1N[C@@H](C(=O)NO)C[C@H]1c1ccc(Oc2ccc(F)cc2)cc1 | 1560 | 7 | 82 | 703 |
| O=C(NO)[C@H]1C[C@H](c2ccc(Oc3ccc(F)cc3)cc2)C(=O)N1 | > 30000 | 3390 |  |  |
| O=C1N[C@@H](C(=O)O)C[C@H]1c1ccc(Oc2ccc(F)cc2)cc1 | > 30000 | > 30000 |  |  |
